We go through 20 compounds from patent US9611224B2 (Hoffmann-La Roche Inc., priority 2012, dated 2017).

Where a name gives a salt, the structure may show the parent alone. A value given as a limit tells only on which side of the number the result lay.

The target in one assay is BIR3 domain of XIAP (Homo sapiens (Human), UniProt P98170). Kind of assay: TR-FRET assay for BIR3 (inhibition of binding to Peptide A).
BIR3 domain of XIAP, sequence (P98170 other isoform, or with tags, fused parts or gaps): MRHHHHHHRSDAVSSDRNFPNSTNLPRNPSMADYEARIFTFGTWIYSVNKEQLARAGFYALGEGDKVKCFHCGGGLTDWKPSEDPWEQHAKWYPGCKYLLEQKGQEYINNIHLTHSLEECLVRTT
Details: not given
Here is the method:
TR-FRET Assay for BIR2 and BIR3
Percentage of inhibition at each concentration was determined to generate an IC50 value for each test compound.
Regarding `CN[C@@H](C)C(=O)N[C@H]1CCc2ccccc2N(Cc2c(OC)ccc3cc(-c4noc(=O)[nH]4)ccc23)C1=O` [Example 31, (S)—N—{(S)-1-[2-Methoxy-6-(5-oxo-4,5-dihydro-[1,2,4]oxadiazol-3-yl)-naphthalen-1-ylmethyl]-2-oxo-2,3,4,5-tetrahydro-1H-benzo[b]azepin-3-yl}-2-methylamino-propionamide hydrochloride], the IC50 was 45 µM.

Staying with this assay, now noted: 6x His-tagged BIR3 domain (aa 241-356 of XIAP), 20 nM Peptide A, 10 concentrations.
`COc1ccc2cc(Br)ccc2c1CN1C(=O)[C@@H](NC(=O)[C@@H](N)[C@H](C)O)CCc2ccccc21` [Example 10, (2S,3S)-2-Amino-N—((S)-1-((6-bromo-2-methoxynaphthalen-1-yl)methyl)-2-oxo-2,3,4,5-tetrahydro-1H-benzo[b]azepin-3-yl)-3-hydroxybutanamide hydrochloride]: the IC50 was greater than 54.8 µM.
Same read-out and setting: the value for `COc1ccc2cc(Br)ccc2c1CN1C(=O)[C@@H](NC(=O)[C@@H](N)[C@@H](C)O)CCc2ccccc21` [Example 11, (2S,3R)-2-Amino-N—((S)-1-((6-bromo-2-methoxynaphthalen-1-yl)methyl)-2-oxo-2,3,4,5-tetrahydro-1H-benzo[b]azepin-3-yl)-3-hydroxybutanamide hydrochloride] was greater than 54.8 µM; that for `COc1ccc2cc(Br)ccc2c1CN1C(=O)[C@@H](NC(=O)[C@@H](N)C2CC2)CCc2ccccc21` [Example 13, hydrochloride] was greater than 54.8 µM.
Same read-out and setting: under `CN[C@@H](C)C(=O)N[C@H]1CCc2ccccc2N(Cc2c(C#CC3(O)COC3)ccc3ccccc23)C1=O` [Example 14, (S)—N—{(S)-1-[2-(3-Hydroxy-oxetan-3-ylethynyl)-naphthalen-1-ylmethyl]-2-oxo-2,3,4,5-tetrahydro-1H-benzo[b]azepin-3-yl}-2-methylamino-propionamide] stands greater than 54.8 µM; under `CCCOc1ccc2ccccc2c1CN1C(=O)[C@@H](NC(=O)[C@H](C)NC)CCc2ccccc21` [Example 15, (S)-2-Methylamino-N—[(S)-2-oxo-1-(2-propoxy-naphthalen-1-ylmethyl)-2,3,4,5-tetrahydro-1H-benzo[b]azepin-3-yl]-propionamide hydrochloride], greater than 54.8 µM.
Same read-out and setting: the value for `C=CCOc1ccc2ccccc2c1CN1C(=O)[C@@H](NC(=O)[C@H](C)NC)CCc2ccccc21` [Example 16, (S)—N—[(S)-1-(2-Allyloxy-naphthalen-1-ylmethyl)-2-oxo-2,3,4,5-tetrahydro-1H-benzo[b]azepin-3-yl]-2-methylamino-propionamide] was greater than 54.8 µM; that for `CN[C@@H](C)C(=O)N[C@H]1CCc2ccccc2N(Cc2c(O)ccc3ccccc23)C1=O` [Example 17, (S)—N—[(S)-1-(2-Hydroxy-naphthalen-1-ylmethyl)-2-oxo-2,3,4,5-tetrahydro-1H-benzo[b]azepin-3-yl]-2-methylamino-propionamide hydrochloride] was greater than 54.8 µM; that for `CN[C@@H](C)C(=O)N[C@H]1CCc2ccc(OCc3ccccc3)cc2N(Cc2c(C)ccc3ccccc23)C1=O` [Example 18, (S)—N—[(S)-8-Benzyloxy-1-(2-methyl-naphthalen-1-ylmethyl)-2-oxo-2,3,4,5-tetrahydro-1H-benzo[b]azepin-3-yl]-2-methylamino-propionamide hydrochloride] was greater than 54.8 µM.
Compound `CN[C@@H](C)C(=O)N[C@H]1CCc2ccccc2N(Cc2csc3ccc(Br)cc23)C1=O` [Example 19, (S)—N—[(S)-1-(5-Bromo-benzo[b]thiophen-3-ylmethyl)-2-oxo-2,3,4,5-tetra hydro-1H-benzo[b]azepin-3-yl]-2-methylamino-propionamide hydrochloride] showed an IC50 of 27.4 µM.
The same measure, in the same setting: under `CN[C@@H](C)C(=O)N[C@H]1CCc2ccccc2N(Cc2csc3ccccc23)C1=O` [Example 20, (S)—N—((S)-1-Benzo[b]thiophen-3-ylmethyl-2-oxo-2,3,4,5-tetrahydro-1H-benzo[b]azepin-3-yl)-2-methylamino-propionamide] stands greater than 57.6 µM; under `CN[C@@H](C)C(=O)N[C@H]1CCc2ccc(-c3ccccc3)cc2N(Cc2c(C)ccc3ccccc23)C1=O` [Example 21, (S)-2-Methylamino-N—[(S)-1-(2-methyl-naphthalen-1-ylmethyl)-2-oxo-8-phenyl-2,3,4,5-tetrahydro-1H-benzo[b]azepin-3-yl]-propionamide hydrochloride], greater than 57.6 µM.
On the same count and under the same terms, the value for `CN[C@@H](C)C(=O)N[C@H]1CCc2ccc(OCc3ccccc3)cc2N(Cc2ccccc2)C1=O` [Example 22, (S)—N—((S)-1-Benzyl-8-benzyloxy-2-oxo-2,3,4,5-tetrahydro-1H-benzo[b]azepin-3-yl)-2-methylamino-propionamide hydrochloride] was greater than 57.6 µM; that for `CN[C@@H](C)C(=O)N[C@H]1CCc2ccc(OCCc3ccccc3)cc2N(Cc2ccccc2)C1=O` [Example 23, (S)—N—((S)-1-Benzyl-2-oxo-8-phenethyloxy-2,3,4,5-tetrahydro-1H-benzo[b]azepin-3-yl)-2-methylamino-propionamide hydrochloride] was greater than 54 µM; that for `CN[C@@H](C)C(=O)N[C@H]1CCc2ccc(OC)cc2N(Cc2ccccc2)C1=O` [Example 24, (S)—N—((S)-1-Benzyl-8-methoxy-2-oxo-2,3,4,5-tetrahydro-1H-benzo[b]azepin-3-yl)-2-methylamino-propionamide hydrochloride] was greater than 54.2 µM.
Turning to `CN[C@@H](C)C(=O)N[C@H]1CCc2ccc(OCCCc3ccccc3)cc2N(Cc2ccccc2)C1=O` [Example 25, (S)—N—[(S)-1-Benzyl-2-oxo-8-(3-phenyl-propoxy)-2,3,4,5-tetrahydro-1H-benzo[b]azepin-3-yl]-2-methylamino-propionamide hydrochloride], the IC50 is greater than 54 µM.
On the same count and under the same terms, under `CN[C@@H](C)C(=O)NC1CCc2ccc(Br)cc2N(Cc2ccccc2)C1=O` (stereo partly drawn) [Example 26, (S)—N-(1-Benzyl-8-bromo-2-oxo-2,3,4,5-tetrahydro-1H-benzo[b]azepin-3-yl)-2-methylamino-propionamide hydrochloride] stands greater than 54.8 µM.
Same read-out and setting: the value for `CN[C@H](C)C(=O)N[C@H]1CCc2ccccc2N(Cc2c(OC)ccc3cc(Br)ccc23)C1=O` [Example 27, (R)—N—[(S)-1-(6-Bromo-2-methoxy-naphthalen-1-ylmethyl)-2-oxo-2,3,4,5-tetrahydro-1H-benzo[b]azepin-3-yl]-2-methylamino-propionamide hydrochloride] was greater than 54.8 µM; that for `CN[C@@H](C)C(=O)N[C@H]1CCc2ccccc2N(Cc2cccc3ccc(-c4nnn[nH]4)cc23)C1=O` [Example 28, (S)-2-Methylamino-N—{(S)-2-oxo-1-[7-(1H-tetrazol-5-yl)-naphthalen-1-ylmethyl]-2,3,4,5-tetrahydro-1H-benzo[b]azepin-3-yl}-propionamide] was greater than 54.8 µM.
On the same count and under the same terms, under `CN[C@@H](C)C(=O)N[C@H]1CCc2ccccc2N(Cc2c(OC)ccc3cc(-c4nc(C)cs4)ccc23)C1=O` [Example 30, (S)—N—{(S)-1-[2-Methoxy-6-(4-methyl-thiazol-2-yl)-naphthalen-1-ylmethyl]-2-oxo-2,3,4,5-tetrahydro-1H-benzo[b]azepin-3-yl}-2-methylamino-propionamide hydrochloride] stands greater than 54.8 µM.

By IC50 is commonly meant the concentration that gives 50% inhibition. A high value points to weaker potency.
